The source of these data is patent publication US20140350119A1, “OPHTHALMIC COMPOSITION COMPRISING GERANYLGERANYLACETONE” (ROHTO PHARMACEUTICAL CO., LTD., priority 2012, published 2014).

For this assay, the system named is rat-derived retinal ganglion cells (RGC). Description: Neurite outgrowth inducing effect in culture system of rat-derived retinal ganglion cells. The class given is cell-based, Wistar rats. Particulars: all-trans form content 3 μM; 48 hours; FIG. 2, FIG. 3; n=4. The text has this:
The progress of visual impairment in glaucoma is associated with retinal ganglion cell (RGC) death due to blood flow failure occurring near the optic nerve (Folia Pharmacol. Jpn. 128, 255-258 (2006)). Accordingly, a culture system of rat-derived retinal neurons (Current protocols in Neuroscience 3.22.1-3.22.10, October 2010), which is widely used as one of study tools for optic nerve diseases such as a glaucoma, was used to examine the neurite outgrowth inducing effect of GGA.
Four-day-old Wistar rats (Japan SLC, Inc.) were euthanized by cervical dislocation and the eyeballs were harvested. The harvested eyeballs were immersed in 70% ethanol for 10 seconds and transferred to a Hanks' balanced salt solution containing 100 U/mL penicillin and 100 μg/mL streptomycin. Under a stereoscopic microscope, the corneas, irises, crystalline lenses, and vitreous bodies were removed using scissors for surgery and forceps, and the retinal tissue was harvested. The harvested retinal tissue was transferred to a centrifugation tube containing 5 mL of a basal medium for neuronal cells (Neurobasal, Invitrogen) containing 100 U/mL penicillin, 100 μg/mL streptomycin, a neural cell culture supplement (B27™-Supplement, Invitrogen), 1 μM L-cysteine (Kyowa Hakko Bio) and 15 U/mL papain (Sigma Aldrich) and incubated at 37° C. for 30 minutes. […]

Take `CC(=O)CC/C=C(\C)CC/C=C(\C)CC/C=C(\C)CCC=C(C)C` [all-trans form, (5E,9E,13E)-6,10,14,18-tetramethyl-5,9,13,17-nonadecatetrae n-2-one]: the “Neurite inducing effect (mean length of neurites of RGC) compared with GGA 6:4 and base” value is “significant neurite inducing effect”.
